Data: patent publication US20260078103A1, “ISOQUINOLONES AS PI3K INHIBITORS” (OnKure, Inc., priority 2022, published 2026)
Read-outs that look alike come from different tables or passages of the source.

Columns and labels:
Format in all cases: cell-based
[1] = system: phosphorylation of AKT (pAKT) in T47D cells expressing mutant PI3Ka (H1047R); test: In vitro cell pAKT (Ser473) HTRF, T47D cells; conditions: cellular pAKT, T47D cells, mutant PI3Ka (H1047R), 6 hours, read-out: Avg T-47D IC50
How it was run: (§1)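 Cells seeded on plates pre-stamped with 10-point compound dilutions, then grown 6 h at 37 °C (T47D in RPMI/10% FBS/insulin; SKBR3 in McCoy's 5a/10% FBS). Lysates read for pAKT Ser473 by HTRF after overnight antibody incubation. Inhibition normalised to 0.1% DMSO and 10 uM alpelisib; IC50 by four-parameter fit.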

[2] = system: T47D cells expressing mutant PI3Ka (H1047R); test: In vitro cell proliferation, T47D cells (CellTiter-Glo); conditions: inhibition of proliferation, read-out: Avg T-47D EC50
How it was run: (§2)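 1,500 cells/well seeded onto pre-stamped 10-pt dilution plates; T47D in RPMI + 10% FBS + insulin 0.2 units/mL, SKBR3 in McCoys 5a + 10% FBS. 72 h, 37 °C, 5% CO2. CTG readout. 0% = 0.1% DMSO, 100% = 10 uM Alpelisib; sigmoidal fit gives EC50.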

[3] = system: phosphorylation of AKT (pAKT) in SKBR3 cells express WT PI3Ka; test: In vitro cell pAKT (Ser473) HTRF, SKBR3 cells; conditions: cellular pAKT
How it was run: as §1

[4] = system: SKBR3 cells express WT PI3Ka; test: In vitro cell proliferation, SKBR3 cells (CellTiter-Glo); conditions: inhibition of proliferation
How it was run: as §2

Row | SMILES | IC50 [1] [µM] | EC50 ([2]; 72 hours) [µM] | IC50 ([3]; 6 hours) [µM] | EC50 ([4]; 72 hours) [µM] | IC50 ([1]; Homo sapiens, T47D, 6 h) [µM] | EC50 ([2]; Homo sapiens, T47D, 72 h) [µM] | IC50 ([3]; Homo sapiens, SK-BR-3, 6 h) [µM] | EC50 ([4]; Homo sapiens, SK-BR-3, 72 h) [µM]
1 | Cc1cc([C@@H](C)Nc2ccccc2C(=O)O)c2cc(N3CCn4c(nnc4C(F)(F)F)C3)n(C)c(=O)c2c1 [Example 435] | 2 to 15 | 2 to 15 | > 15 | > 15 | – | – | – | –
2 | Cc1cc([C@@H](C)Nc2ccccc2C(=O)O)c2cc(N3CCn4nncc4C3)n(C)c(=O)c2c1 [Example 436] | – | – | – | – | 2 to 15 | 2 to 15 | > 15 | > 15
3 | Cc1cc([C@@H](C)Nc2cccc(F)c2C(=O)O)c2cc(N3CCn4c(cnc4C)C3)n(C)c(=O)c2c1 [Example 438] | > 15 | > 15 | > 15 | > 15 | – | – | – | –
4 | Cc1cc([C@@H](C)Nc2cccc(F)c2C(=O)O)c2cc(N3CCc4c(cnn4C)C3)n(C)c(=O)c2c1 [Example 439] | 0.5 to 2 | 0.5 to 2 | > 15 | > 15 | – | – | – | –
5 | Cc1ncc(F)cc1-c1ncc(-c2cc3c([C@@H](C)Nc4cccc(F)c4C(=O)O)cc(F)cc3c(=O)n2C)cc1F [Example 440] | – | – | – | – | 0.001 to 0.5 | 0.001 to 0.5 | 2 to 15 | > 15
6 | C[C@@H](Nc1cccc(F)c1C(=O)O)c1cc(F)cc2c(=O)n(C)c(-c3ccc(OCC(F)(F)F)nc3)cc12 [Example 441] | 0.001 to 0.5 | 0.5 to 2 | > 15 | > 15 | – | – | – | –
7 | Cc1cc([C@@H](C)Nc2ccccc2C(=O)O)c2cc(N3CCn4c(nnc4C4CC4)C3)n(C)c(=O)c2c1 [Example 445] | – | – | – | – | 2 to 15 | 2 to 15 | > 15 | > 15
8 | Cc1cc([C@@H](C)Nc2ccccc2C(=O)O)c2cc(N3CCn4nc(C)cc4C3)n(C)c(=O)c2c1 [Example 446] | – | – | – | – | 0.001 to 0.5 | 0.001 to 0.5 | > 15 | > 15
9 | CC(Nc1ccccc1C(=O)O)c1cc(F)cc2c(=O)n(C)c(-c3ccc(OC4CC(F)C4)nc3)cc12 (centres unmarked) [Example 447] | 0.001 to 0.5 | 0.001 to 0.5 | > 15 | > 15 | – | – | – | –
10 | CC(Nc1ccccc1C(=O)O)c1cc(F)cc2c(=O)n(C)c(-c3ccc(OC4CC(F)C4)nc3)cc12 (centres unmarked) [Example 448] | 0.001 to 0.5 | 0.001 to 0.5 | > 15 | > 15 | – | – | – | –
11 | Cc1csc(N2CCN(c3cc4c([C@@H](C)Nc5ccccc5C(=O)O)cc(F)cc4c(=O)n3C)CC2)n1 [Example 453] | – | – | – | – | 0.001 to 0.5 | 0.001 to 0.5 | > 15 | 2 to 15
12 | C[C@@H](Nc1cccc(F)c1C(=O)O)c1cc(F)cc2c(=O)n(C)c(C3CC3)cc12 [Example 454] | – | – | – | – | 0.001 to 0.5 | 0.001 to 0.5 | > 15 | > 15
13 | C[C@@H](Nc1ccccc1C(=O)O)c1cc(F)cc2c(=O)n(C)c(C3CC3)cc12 [Example 455] | – | – | – | – | 0.001 to 0.5 | 0.001 to 0.5 | > 15 | > 15
14 | Cc1ccc(N2CCN(c3cc4c([C@@H](C)Nc5cccc(F)c5C(=O)O)cc(F)cc4c(=O)n3C)CC2)c(C)n1 [Example 456] | – | – | – | – | 0.001 to 0.5 | 0.001 to 0.5 | 2 to 15 | 2 to 15
15 | CC(Nc1cccc(F)c1C(=O)O)c1cc(F)cc2c(=O)n(C)c(-c3ccc(OCC(F)F)nc3)cc12 (centres unmarked) [Example 457] | 0.001 to 0.5 | 0.001 to 0.5 | > 15 | > 15 | – | – | – | –
16 | C[C@@H](Nc1ccccc1C(=O)O)c1cc(F)cc2c(=O)n(C)c(-c3cnc(OC4CC4)c(F)c3)cc12 [Example 458] | – | – | – | – | 0.001 to 0.5 | 0.001 to 0.5 | > 15 | > 15

Row | SMILES | IC50 [1] [µM] | EC50 ([2]; 72 hours) [µM] | IC50 ([3]; 6 hours) [µM] | EC50 ([4]; 72 hours) [µM] | IC50 ([1]; Homo sapiens, T47D, 6 h) [µM] | EC50 ([2]; Homo sapiens, T47D, 72 h) [µM] | IC50 ([3]; Homo sapiens, SK-BR-3, 6 h) [µM] | EC50 ([4]; Homo sapiens, SK-BR-3, 72 h) [µM]
17 | Cc1ncc(-c2ncc(-c3cc4c(C(C)Nc5ccccc5C(=O)O)cc(F)cc4c(=O)n3C)cc2F)cc1F (centres unmarked) [Example 459] | 0.001 to 0.5 | 0.001 to 0.5 | 2 to 15 | 2 to 15 | – | – | – | –
18 | Cc1ccc(N2CCN(c3cc4c(C(C)Nc5ccccc5C(=O)O)cc(F)cc4c(=O)n3C)CC2)c(C)n1 (centres unmarked) [Example 460] | 0.001 to 0.5 | 0.001 to 0.5 | 0.5 to 2 | 0.5 to 2 | – | – | – | –
19 | CC(Nc1ccccc1C(=O)O)c1cc(F)cc2c(=O)n(C)c(-c3ccc(OCC(F)F)nc3)cc12 (centres unmarked) [Example 462] | 0.001 to 0.5 | 0.001 to 0.5 | > 15 | > 15 | – | – | – | –
20 | C[C@@H](Nc1ccccc1C(=O)O)c1cc(F)cc2c(=O)n(C)c(N3C4CCC3CN(CC(F)(F)F)C4)cc12 [Example 464] | – | – | – | – | 0.001 to 0.5 | 0.001 to 0.5 | 2 to 15 | 2 to 15
21 | Cc1ncncc1N1CCN(c2cc3c([C@@H](C)Nc4ccccc4C(=O)O)cc(F)cc3c(=O)n2C)CC1 [Example 465] | – | – | – | – | 0.001 to 0.5 | 0.001 to 0.5 | 2 to 15 | 2 to 15
22 | C[C@@H](Nc1ccccc1C(=O)O)c1cc(F)cc2c(=O)n(C)c(N3CCN(c4nccs4)CC3)cc12 [Example 466] | – | – | – | – | 0.001 to 0.5 | 0.001 to 0.5 | 2 to 15 | > 15
23 | Cc1cnc(N2CCN(c3cc4c([C@@H](C)Nc5ccccc5C(=O)O)cc(F)cc4c(=O)n3C)CC2)s1 [Example 467] | – | – | – | – | 0.001 to 0.5 | 0.001 to 0.5 | 2 to 15 | 2 to 15
24 | Cc1nc(C)c(-c2ncc(-c3cc4c(C(C)Nc5ccccc5C(=O)O)cc(F)cc4c(=O)n3C)cc2F)cc1F (centres unmarked) [Example 471] | 0.001 to 0.5 | 0.001 to 0.5 | 2 to 15 | 2 to 15 | – | – | – | –
25 | Cc1ccc(-c2ncc(-c3cc4c([C@@H](C)Nc5ccccc5C(=O)O)cc(F)cc4c(=O)n3C)cc2F)c(C)n1 [Example 472] | – | – | – | – | 0.001 to 0.5 | 0.001 to 0.5 | 2 to 15 | 2 to 15
26 | Cc1ccc(-c2ncc(-c3cc4c(C(C)Nc5ccccc5C(=O)O)cc(F)cc4c(=O)n3C)cc2F)cn1 (centres unmarked) [Example 473] | 0.001 to 0.5 | 0.001 to 0.5 | 2 to 15 | > 15 | – | – | – | –
27 | Cc1cc(C(C)Nc2cccc(F)c2C(=O)O)c2cc(-c3ccc(COC(F)(F)F)nc3)n(C)c(=O)c2c1 (centres unmarked) [Example 474] | 0.001 to 0.5 | 0.001 to 0.5 | > 15 | > 15 | – | – | – | –
28 | Cc1ncc(N2CCN(c3cc4c([C@@H](C)Nc5cccc(F)c5C(=O)O)cc(F)cc4c(=O)n3C)CC2)s1 [Example 477] | – | – | – | – | 0.001 to 0.5 | 0.001 to 0.5 | 2 to 15 | > 15
29 | Cc1ncc(N2CCN(c3cc4c([C@@H](C)Nc5ccccc5C(=O)O)cc(F)cc4c(=O)n3C)CC2)s1 [Example 478] | – | – | – | – | 0.001 to 0.5 | 0.001 to 0.5 | 2 to 15 | > 15
30 | C[C@@H](Nc1ccccc1C(=O)O)c1cc(F)cc2c(=O)n(C)c(-c3cc(F)c4nn(C)cc4c3)cc12 [Example 483] | – | – | – | – | 0.001 to 0.5 | 0.5 to 2 | > 15 | > 15
31 | C[C@@H](Nc1cccc(F)c1C(=O)O)c1cc(F)cc2c(=O)n(C)c(-c3cc(F)c4nn(C)cc4c3)cc12 [Example 484] | – | – | – | – | 0.5 to 2 | 0.5 to 2 | > 15 | > 15
32 | Cc1cc([C@@H](C)Nc2nccnc2C(=O)O)c2cc(N3CCN(CC(F)(F)F)CC3)n(C)c(=O)c2c1 [Example 485] | – | – | – | – | 0.5 to 2 | 2 to 15 | > 15 | 2 to 15
